US12398118B2, “Rho-associated protein kinase inhibitor, pharmaceutical composition comprising same, and use thereof” (BEIJING TIDE PHARMACEUTICAL CO., LTD., priority 2018, dated 2025)

Columns and labels:
ROCK2 = ROCK2 (Homo sapiens, UniProt O75116); assay: ROCK2 kinase IC50, HTRF KinEASE-STK S2 kit; type: biochemical; details: 2 hours at room temperature
Protocol: (§1) The kinase IC50 was determined by a commercialized CISBIO kinase detection kit, HTRF KinEASE-STK S2 kit (62ST2PEC). ROCK2 (01-119) employed in the reaction was purchased from Carna Biosciences.
(§2) Before the assay, the following working solutions as needed were formulated with corresponding reagents according to the instruction of the kinase detection kit: 1×kinase buffer, 5×STK-S2 substrate working solution (1.5 μM) and 5×ATP working solution (1.5 μM), 5×ROCK2 kinase working solution, 4×Streptavidin-XL665 working solution, and 4×STK-Ab-Cryptate 2 detection solution. Then the assay was performed according to the following procedure.
(§3) A solution of a compound at a concentration of 10000 nM was prepared with the 1×kinase buffer containing 2.5% DMSO. Gradient dilution of the solution of the compound was performed with the kinase buffer containing DMSO, so as to obtain solutions of a test compound at 9 different concentrations. In addition to wells of test compounds, a positive well (containing all the reagents except the compound) and a negative well (containing all the reagents except the test compound and kinase) were set. Except for the control wells (positive and negative wells), a solution of a test compound (4 μL) was added to each of the reaction wells, and a solution of 2.5% DMSO was added to the control wells. Then the substrate (2 μM, i.e., 2 μL 5×STK-S2 substrate working solution) was added to each of the reaction wells. The 5×ROCK2 kinase working solution (2 μL, containing 1.4 ng ROCK2 kinase) was added to each of the reaction wells except for the negative well, the volume of which was made up with the 1×kinase buffer (2 μL). The 5×ATP working solution (2 μL) was added to each of the reaction wells, and the mixtures were incubated at room temperature for 2 hours. After the kinase reaction was complete, the 4×Streptavidin-XL665 working solution was added to each of the reaction wells, the solutions were mixed, followed by immediate addition of the 4×STK-Ab-Cryptate 2 detection solution (5 μL), and the mixtures were incubated at room temperature for 1 hour. The fluorescence signal was read on ENVISION (Perkinelmer) (excitation wavelength: 320 inn, and emission wavelength: 665 nm and 615 nm). The inhibitory rate in each well was calculated based on the fluorescence intensity value: ER (Emission Ratio)_(fluorescence intensity at 665 nm/fluorescence intensity at 615 nm); inhibitory rate=(ERpositive−ERtest compound)/(ERpositive−ERnegative)*100%. Curves were plotted and fitted to obtain the median inhibitory concentration (IC50) of each teat compound with the PRISM 5.0 software. According to a biological test method similar to the above, the IC50 values of the compounds on ROCK1 were also tested.

ROCK1 = ROCK1 (Homo sapiens (Human), UniProt Q13464); assay: ROCK1 kinase IC50, biological test method similar to ROCK2 assay; type: biochemical
Sequence of ROCK1 (Q13464 whole entry, species assumed): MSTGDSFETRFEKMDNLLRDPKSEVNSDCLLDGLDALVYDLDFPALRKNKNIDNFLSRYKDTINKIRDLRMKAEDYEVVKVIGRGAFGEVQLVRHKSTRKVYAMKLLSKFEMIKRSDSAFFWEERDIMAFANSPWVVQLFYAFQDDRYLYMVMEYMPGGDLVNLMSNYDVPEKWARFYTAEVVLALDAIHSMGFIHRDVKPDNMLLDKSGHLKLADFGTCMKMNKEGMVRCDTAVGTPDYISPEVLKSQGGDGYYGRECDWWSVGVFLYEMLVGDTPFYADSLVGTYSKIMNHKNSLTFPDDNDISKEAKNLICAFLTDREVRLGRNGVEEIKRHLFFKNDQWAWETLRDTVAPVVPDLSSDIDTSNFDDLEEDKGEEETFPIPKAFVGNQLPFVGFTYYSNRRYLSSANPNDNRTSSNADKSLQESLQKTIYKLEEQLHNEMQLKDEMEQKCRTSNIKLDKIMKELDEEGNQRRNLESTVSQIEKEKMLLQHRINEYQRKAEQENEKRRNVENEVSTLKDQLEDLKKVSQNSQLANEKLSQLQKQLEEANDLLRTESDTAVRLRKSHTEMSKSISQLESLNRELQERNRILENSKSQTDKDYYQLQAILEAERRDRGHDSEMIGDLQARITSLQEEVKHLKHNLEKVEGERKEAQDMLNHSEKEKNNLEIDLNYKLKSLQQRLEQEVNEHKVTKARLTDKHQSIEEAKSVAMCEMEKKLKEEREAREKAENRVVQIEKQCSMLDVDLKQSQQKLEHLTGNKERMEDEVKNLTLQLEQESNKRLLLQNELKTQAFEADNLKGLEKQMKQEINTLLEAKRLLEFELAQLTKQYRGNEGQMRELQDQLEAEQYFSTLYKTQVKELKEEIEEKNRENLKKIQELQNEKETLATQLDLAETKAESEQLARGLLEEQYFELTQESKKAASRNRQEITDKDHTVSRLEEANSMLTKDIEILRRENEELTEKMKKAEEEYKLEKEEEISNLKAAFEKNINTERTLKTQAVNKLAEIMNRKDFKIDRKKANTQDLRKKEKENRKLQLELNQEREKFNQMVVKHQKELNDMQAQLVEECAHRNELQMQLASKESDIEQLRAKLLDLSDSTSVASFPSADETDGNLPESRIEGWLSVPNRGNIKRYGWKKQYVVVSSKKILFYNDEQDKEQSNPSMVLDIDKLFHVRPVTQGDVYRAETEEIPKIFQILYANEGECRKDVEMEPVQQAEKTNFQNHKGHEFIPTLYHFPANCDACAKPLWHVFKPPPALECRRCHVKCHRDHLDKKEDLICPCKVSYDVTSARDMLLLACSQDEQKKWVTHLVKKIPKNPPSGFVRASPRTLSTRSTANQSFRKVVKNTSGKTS
Protocol: as §1, §2, §3

Sequence of ROCK2 (O75116 whole entry, looked up): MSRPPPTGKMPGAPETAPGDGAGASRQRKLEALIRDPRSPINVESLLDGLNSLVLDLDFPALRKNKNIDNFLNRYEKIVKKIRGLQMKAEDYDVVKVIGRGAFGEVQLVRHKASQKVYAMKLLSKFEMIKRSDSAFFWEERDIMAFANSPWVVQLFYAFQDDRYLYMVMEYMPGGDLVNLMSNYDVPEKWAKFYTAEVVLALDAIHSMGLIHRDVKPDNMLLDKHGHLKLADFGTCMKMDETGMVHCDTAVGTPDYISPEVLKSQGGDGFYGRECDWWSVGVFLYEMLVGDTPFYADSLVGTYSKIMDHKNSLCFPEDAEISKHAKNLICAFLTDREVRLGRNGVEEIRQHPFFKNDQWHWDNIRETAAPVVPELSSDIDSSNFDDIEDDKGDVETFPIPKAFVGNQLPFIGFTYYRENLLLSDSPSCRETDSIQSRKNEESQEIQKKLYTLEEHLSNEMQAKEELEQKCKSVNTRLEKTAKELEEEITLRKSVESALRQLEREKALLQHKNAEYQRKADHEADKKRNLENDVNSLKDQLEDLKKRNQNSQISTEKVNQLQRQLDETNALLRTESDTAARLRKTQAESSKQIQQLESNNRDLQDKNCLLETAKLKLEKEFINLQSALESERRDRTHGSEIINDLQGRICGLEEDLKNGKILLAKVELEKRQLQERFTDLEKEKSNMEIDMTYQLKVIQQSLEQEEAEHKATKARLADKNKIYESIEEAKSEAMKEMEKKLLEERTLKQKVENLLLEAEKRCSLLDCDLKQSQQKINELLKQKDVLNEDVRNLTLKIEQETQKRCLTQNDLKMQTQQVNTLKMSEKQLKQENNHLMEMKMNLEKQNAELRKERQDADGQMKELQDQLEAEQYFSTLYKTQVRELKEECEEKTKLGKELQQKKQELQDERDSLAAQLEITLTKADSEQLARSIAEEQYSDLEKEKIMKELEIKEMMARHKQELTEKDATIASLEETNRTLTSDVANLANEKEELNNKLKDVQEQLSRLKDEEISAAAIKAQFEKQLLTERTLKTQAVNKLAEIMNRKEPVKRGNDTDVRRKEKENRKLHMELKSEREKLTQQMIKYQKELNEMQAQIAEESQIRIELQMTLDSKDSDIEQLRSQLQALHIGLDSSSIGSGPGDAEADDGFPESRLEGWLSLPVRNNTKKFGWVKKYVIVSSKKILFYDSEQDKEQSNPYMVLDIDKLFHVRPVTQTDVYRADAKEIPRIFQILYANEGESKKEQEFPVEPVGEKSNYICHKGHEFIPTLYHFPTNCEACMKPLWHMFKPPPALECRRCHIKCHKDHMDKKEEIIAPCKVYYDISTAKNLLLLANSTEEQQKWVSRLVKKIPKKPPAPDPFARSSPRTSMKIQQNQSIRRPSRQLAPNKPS

Compound | IC50 (ROCK2) [nM] | IC50 (ROCK1) [nM]
CC(CC(=O)N1CCc2sc(-c3ncc(F)c(Nc4ccc5c(c4)CCNC5=O)n3)cc2C1)C(F)(F)F (centres unmarked) [C55, 6-((5-fluoro-2-(5-(4,4,4-trifluoro-3-methylbutanoyl)-4,5,6,7-tetrahydrothieno[3,2-c]pyridin-2-yl)pyrimidin-4-yl)amino)-3,4-dihydroisoquinolin-1(2H)-one] | 51 | > 10000
O=C1NCCc2cc(Nc3nc(-c4ccc5c(c4)CN(C(=O)N4CCC(F)(F)CC4)C5)ncc3F)ccc21 [C41, 6-((2-(2-(4,4-difluoro-piperidine-1-carbonyl)isoindolin-5-yl)-5-fluoro-pyrimidin-4-yl)amino)-3,4-dihydro-isoquinolin-1(2H)-one] | 151 | > 10000
CN(CC(F)(F)F)C(=O)N1Cc2ccc(-c3ncc(F)c(Nc4ccc5c(c4)CCNC5=O)n3)cc2C1 [C78, 5-(5-fluoro-4-((1-oxo-1,2,3,4-tetrahydro-isoquinolin-6-yl)amino)pyrimidin-2-yl)-N-methyl-N-(2,2,2-trifluoro-ethyl) isoindoline-2-carboxylate] | 40 | > 10000
COCn1c(C(=O)N2CC(F)(F)C2)cc2ccc(-c3ncc(F)c(Nc4ccc5c(=O)[nH]ccc5c4)n3)cc21 [C20, 6-((2-(2-(3,3-difluoro-azetidine-1-carbonyl)-1-(methoxy-methyl)-1H-indol-6-yl)-5-fluoro-pyrimidin-4-yl)amino) isoquinolin-1(2H)-one] | 238 | > 10000
CC(OC(=O)N1CCc2cc(-c3ncc(F)c(Nc4ccc5c(=O)[nH]ccc5c4)n3)ccc2C1)C(F)(F)F (centres unmarked) [C39, 1,1,1-trifluoro-propan-2-yl 6-(5-fluoro-4-((1-oxo-1,2-dihydro-isoquinolin-6-yl)amino)pyrimidin-2-yl)-3,4-dihydro-isoquinolin-2(1H)-carboxylate] | 102 | > 10000
CC(CC(=O)N1Cc2ccc(-c3nc(Nc4ccc5c(=O)[nH]ccc5c4)c4ccccc4n3)cc2C1)C(F)(F)F (centres unmarked) [C50] | 280 | > 10000
O=C1NCCc2cc(Nc3nc(-c4cc5c(s4)CCN(C(=O)OC(C(F)(F)F)C(F)(F)F)C5)ncc3F)ccc21 [C61, 1,1,1,3,3,3-hexafluoropropan-2-yl 2-(5-fluoro-4-((1-oxo-1,2,3,4-tetrahydroisoquinolin-6-yl)amino)pyrimidin-2-yl)-6,7-dihydrothieno[3,2-c]pyridine-5(4H)-carboxylate] | 170 | > 10000
O=C(OC1CC(F)(F)C1)N1CCc2sc(-c3ncc(F)c(Nc4ccc5c(=O)[nH]ccc5c4)n3)cc2C1 [C27, 3,3-difluorocyclobutyl 2-(5-fluoro-4-((1-oxo-1,2-dihydroisoquinolin-6-yl)amino)pyrimidin-2-yl)-6,7-dihydrothieno[3,2-c]pyridine-5(4H)-carboxylate] | 8 | > 10000
CC(OC(=O)N1Cc2ccc(-c3ncc(F)c(Nc4ccc5c(=O)[nH]ccc5c4)n3)cc2C1)C(F)(F)F (centres unmarked) [C18, 1,1,1-trifluoro-propan-2-yl 5-(5-fluoro-4-((1-oxo-1,2-dihydro-isoquinolin-6-yl)amino)pyrimidin-2-yl) isoindoline-2-carboxylate] | 31 | > 10000
O=C1NCCc2cc(Nc3nc(-c4cc5c(s4)CCN(C(=O)CCC(F)(F)F)C5)ncc3F)ccc21 [C69, 6-((5-fluoro-2-(5-(4,4,4-trifluorobutanoyl)-4,5,6,7-tetrahydrothieno[3,2-c]pyridin-2-yl)pyrimidin-4-yl)amino)-3,4-dihydroisoquinolin-1(2H)-one] | 45 | > 10000
O=C(C1CC(F)(F)C1)N1CCc2cc(-c3ncc(F)c(Nc4ccc5c(=O)[nH]ccc5c4)n3)ccc21 [C15, 6-((2-(1-(3,3-difluoroo-cyclobutane-1-carbonyl)indolin-5-yl)-5-fluoro-pyrimidin-4-yl)amino) isoquinolin-1-(2H)-one] | 79 | > 10000
O=C(C1CC(F)(F)C1)N1Cc2ccc(-c3ncc(F)c(Nc4ccc5c(=O)[nH]ccc5c4)n3)cc2C1 [C8, 6-((2-(2-(3,3-difluoroo-cyclobutane-l-carbonyl)isoindolin-5-yl)-5-fluoro-pyrimidin-4-yl)amino) isoquinolin-1(2H)-one] | 16 | > 10000
CC(C)(C)OC(=O)N1CCc2sc(-c3ncc(F)c(Nc4ccc5c(c4)CCNC5=O)n3)cc2C1 [C42, tert-butyl 2-(5-fluoro-4-((1-oxo-1,2,3,4-tetrahydroisoquinolin-6-yl)amino)pyrimidin-2-yl)-6,7-dihydrothieno[3,2-c]pyridine-5(4H)-carboxylate] | 31 | > 10000
